# Source: ChEMBL document CHEMBL1201862, “PubChem BioAssay data set” (2004)
# Active and inactive are the calls of the source.
# What was measured:
# [1] = cytotoxicity toward NIH3T3 fibroblasts, dose response, counter-screen, cell-based, ATP luminescence, mouse fibroblasts (AID 2010); format: functional;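 note: cells exposed to compound for about 90 hours before reading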
# [2] = HepG2 cell cytotoxicity, dose response, cytotoxicity control for non-replicating M. tuberculosis project (AID 489018); format: functional; details: Mycobacterium tuberculosis
# [3] = cells; format: functional
# [4] = THP-1 cell cytotoxicity, dose response, cytotoxicity control for non-replicating M. tuberculosis project (AID 489025); format: functional
# [5] = inhibitors of intracellular T. cruzi replication, confirmation, NIH3T3 host cells, beta-gal luminescence (AID 2044); format: functional, cell-based;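 note: intracellular parasites grown in NIH/3T3 mouse fibroblasts as host cells; luminescent beta-galactosidase reporter signal from transgenic T. cruzi replicating inside host cells; inhibitors lower the luminescence signal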
# [6] = molecular target: Nonstructural protein 1 (Influenza A virus, UniProt Q194T2); format: functional, Influenza A virus (A/California/07/2009(H1N1))
# [7] = Vero E6 cell cytotoxicity, dose response, cytotoxicity control for non-replicating M. tuberculosis project, secondary assay (AID 492998); format: functional, VeroE6; details: Vero C1008
# [8] = molecular target: T1, Short transient receptor potential channel 4 (Mus musculus, UniProt Q9QUQ5); test: mouse TRPC4 channel inhibitors, dose response, cell-based, HEK293 TRPC4/mu-opioid, Fluo-4 calcium (AID 434942); format: functional;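 note: potency of inhibitors blocking the TRPC4 calcium response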
# T1 sequence (Q9QUQ5 whole entry): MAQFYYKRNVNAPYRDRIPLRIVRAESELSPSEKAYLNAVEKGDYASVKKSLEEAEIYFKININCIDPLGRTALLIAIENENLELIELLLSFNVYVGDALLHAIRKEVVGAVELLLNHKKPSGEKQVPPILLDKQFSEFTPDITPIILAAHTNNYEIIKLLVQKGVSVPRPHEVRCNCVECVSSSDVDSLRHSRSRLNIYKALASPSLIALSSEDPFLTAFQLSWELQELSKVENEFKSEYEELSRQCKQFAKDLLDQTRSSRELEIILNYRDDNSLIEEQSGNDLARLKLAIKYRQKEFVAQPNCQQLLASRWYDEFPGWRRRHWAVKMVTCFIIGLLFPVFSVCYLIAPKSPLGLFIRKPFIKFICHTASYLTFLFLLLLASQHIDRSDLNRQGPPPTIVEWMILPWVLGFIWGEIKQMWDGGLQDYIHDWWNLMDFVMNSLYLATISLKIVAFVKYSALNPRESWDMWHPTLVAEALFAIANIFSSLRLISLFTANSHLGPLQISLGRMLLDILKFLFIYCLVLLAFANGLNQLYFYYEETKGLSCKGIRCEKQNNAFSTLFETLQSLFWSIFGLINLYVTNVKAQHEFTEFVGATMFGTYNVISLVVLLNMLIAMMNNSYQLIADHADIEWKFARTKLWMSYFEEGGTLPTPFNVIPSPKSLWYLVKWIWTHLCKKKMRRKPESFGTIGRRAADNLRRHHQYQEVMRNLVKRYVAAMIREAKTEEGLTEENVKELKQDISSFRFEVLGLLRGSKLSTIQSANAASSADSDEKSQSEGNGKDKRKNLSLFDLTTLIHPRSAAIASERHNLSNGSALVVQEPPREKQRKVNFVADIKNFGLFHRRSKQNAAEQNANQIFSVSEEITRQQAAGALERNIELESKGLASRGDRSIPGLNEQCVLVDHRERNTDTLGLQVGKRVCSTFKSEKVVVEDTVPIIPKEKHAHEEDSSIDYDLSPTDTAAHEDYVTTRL
# [9] = molecular target: T2, Replicative DNA helicase DnaB (Mycobacterium tuberculosis, UniProt P9WMR3); test: DnaB intein splicing inhibitors, dose response, biochemical, cell-free fluorescence (AID 449749); format: functional
# T2 sequence (P9WMR3 whole entry): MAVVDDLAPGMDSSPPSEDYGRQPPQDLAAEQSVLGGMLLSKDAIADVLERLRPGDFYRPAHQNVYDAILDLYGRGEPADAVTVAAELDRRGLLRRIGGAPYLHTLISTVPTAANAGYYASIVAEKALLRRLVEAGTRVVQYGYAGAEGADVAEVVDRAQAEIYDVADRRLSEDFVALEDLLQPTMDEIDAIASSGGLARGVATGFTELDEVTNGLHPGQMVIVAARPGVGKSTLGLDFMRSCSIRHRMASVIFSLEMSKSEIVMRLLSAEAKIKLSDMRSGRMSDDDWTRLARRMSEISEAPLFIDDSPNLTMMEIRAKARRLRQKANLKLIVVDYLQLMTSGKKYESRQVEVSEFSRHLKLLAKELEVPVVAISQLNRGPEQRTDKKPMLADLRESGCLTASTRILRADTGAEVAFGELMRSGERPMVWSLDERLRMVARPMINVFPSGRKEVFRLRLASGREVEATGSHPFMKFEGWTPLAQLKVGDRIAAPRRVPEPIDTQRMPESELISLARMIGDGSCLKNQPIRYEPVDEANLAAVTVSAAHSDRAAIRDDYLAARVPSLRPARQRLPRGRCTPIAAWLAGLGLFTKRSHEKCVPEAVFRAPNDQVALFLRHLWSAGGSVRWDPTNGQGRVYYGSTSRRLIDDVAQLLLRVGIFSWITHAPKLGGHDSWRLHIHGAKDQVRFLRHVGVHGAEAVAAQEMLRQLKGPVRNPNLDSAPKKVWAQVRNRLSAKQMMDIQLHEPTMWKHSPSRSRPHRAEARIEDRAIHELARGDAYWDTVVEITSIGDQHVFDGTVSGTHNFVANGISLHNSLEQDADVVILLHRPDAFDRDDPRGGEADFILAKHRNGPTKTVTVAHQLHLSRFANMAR
# [10] = molecular target: T3, Protein RecA (Mycobacterium tuberculosis, UniProt P9WHJ3); test: Fluorescence Cell-Free Homogeneous Dose Retest to Identify Inhibitors of RecA-Intein Splicing Activity. [Related pubchem assays (depositor defined):AID2097, AID2223, AID489010, AID492950]; format: functional
# T3 sequence (P9WHJ3 whole entry): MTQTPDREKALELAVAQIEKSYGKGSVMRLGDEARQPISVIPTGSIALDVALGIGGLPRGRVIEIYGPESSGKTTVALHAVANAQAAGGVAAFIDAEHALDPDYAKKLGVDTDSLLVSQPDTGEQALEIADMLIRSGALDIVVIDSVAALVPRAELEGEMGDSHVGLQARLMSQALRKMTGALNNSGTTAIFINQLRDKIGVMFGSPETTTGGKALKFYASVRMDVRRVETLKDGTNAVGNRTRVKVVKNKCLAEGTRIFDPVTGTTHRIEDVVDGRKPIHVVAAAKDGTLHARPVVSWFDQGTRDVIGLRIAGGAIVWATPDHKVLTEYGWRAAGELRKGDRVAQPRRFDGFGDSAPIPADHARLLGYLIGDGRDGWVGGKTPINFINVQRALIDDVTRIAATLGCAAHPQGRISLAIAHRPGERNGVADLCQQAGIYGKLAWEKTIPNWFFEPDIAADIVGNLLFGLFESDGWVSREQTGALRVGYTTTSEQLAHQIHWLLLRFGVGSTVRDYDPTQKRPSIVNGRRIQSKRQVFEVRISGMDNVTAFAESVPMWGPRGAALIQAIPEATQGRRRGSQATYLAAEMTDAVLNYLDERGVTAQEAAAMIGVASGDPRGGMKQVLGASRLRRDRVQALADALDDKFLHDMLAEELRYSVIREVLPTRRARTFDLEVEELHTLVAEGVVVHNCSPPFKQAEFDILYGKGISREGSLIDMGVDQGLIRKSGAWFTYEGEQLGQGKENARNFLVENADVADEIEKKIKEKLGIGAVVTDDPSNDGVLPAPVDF
# [11] = molecular target: Peroxisome proliferator-activated receptor gamma/Nuclear receptor coactivator 3 (Homo sapiens, UniProt P37231); test: TR-FRET dose response biochemical High Throughput Screening assay for agonists of the steroid receptor coactivator 3 (SRC-3) recruitment by the peroxisome proliferator-activated receptor gamma (PPAR gamma): non-selective agonists. [Related pubchem assays: 1301 (Confirmation screen.), 1048 (Primary screen.)]; format: functional
# [12] = molecular target: Peroxisome proliferator-activated receptor gamma/Nuclear receptor coactivator 2 (Homo sapiens, UniProt P37231); test: TR-FRET dose response biochemical High Throughput Screening assay for agonists of the steroid receptor coactivator 2 (SRC-2) recruitment by the peroxisome proliferator-activated receptor gamma (PPAR gamma): non-selective agonists. [Related pubchem assays: 1297, 1032 ]; format: functional
# [13] = molecular target: Peroxisome proliferator-activated receptor gamma/Nuclear receptor coactivator 1 (Homo sapiens, UniProt P37231); test: TR-FRET dose response biochemical High Throughput Screening assay for agonists of the steroid receptor coactivator 1 (SRC-1) recruitment by the peroxisome proliferator-activated receptor gamma (PPAR gamma): non-selective agonists. [Related pubchem assays (depositor defined):AID1300, AID1808, AID504735, AID631]; format: protein assay
# [14] = A cytotoxicity screen of small molecule inhibitors of the PhoP region in Salmonella typhi identified in the primary screen. [Related pubchem assays: 1850, 1864, 1985 ]; format: functional
# [15] = molecular target: DNA dC->dU-editing enzyme APOBEC-3G (Homo sapiens, UniProt Q9HC16); test: Dose Response confirmation of small molecule APOBEC3G DNA Deaminase Inhibitors via a fluorescence-based single-stranded DNA deaminase assay. [Related pubchem assays (depositor defined):AID493012, AID493028]; format: functional
# [16] = molecular target: DNA dC->dU-editing enzyme APOBEC-3A (Homo sapiens, UniProt P31941); test: APOBEC3A DNA deaminase inhibitors, dose response, biochemical (AID 504722); format: functional
# [17] = molecular target: T4, Cytochrome P450 1A2 (Homo sapiens, UniProt P05177);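 note: PubChem cytochrome P450 panel assay, CYP1A2 panel member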
# T4 sequence (P05177 whole entry): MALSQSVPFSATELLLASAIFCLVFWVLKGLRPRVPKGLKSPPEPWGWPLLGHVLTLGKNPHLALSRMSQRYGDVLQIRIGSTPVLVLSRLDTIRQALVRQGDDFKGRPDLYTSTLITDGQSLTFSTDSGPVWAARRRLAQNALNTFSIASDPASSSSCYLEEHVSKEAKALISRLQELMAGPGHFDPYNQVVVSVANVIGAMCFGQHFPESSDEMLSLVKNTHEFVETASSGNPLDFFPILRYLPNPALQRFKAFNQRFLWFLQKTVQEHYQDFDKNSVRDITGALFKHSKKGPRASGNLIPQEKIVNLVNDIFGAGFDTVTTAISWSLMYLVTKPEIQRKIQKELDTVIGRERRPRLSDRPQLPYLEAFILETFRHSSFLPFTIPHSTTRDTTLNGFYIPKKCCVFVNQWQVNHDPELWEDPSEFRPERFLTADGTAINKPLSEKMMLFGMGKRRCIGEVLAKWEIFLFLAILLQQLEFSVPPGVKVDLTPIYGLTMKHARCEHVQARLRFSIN
# [18] = system: HEK293; test: NOD1 signaling inhibitors, primary screen, cell-based, luminescence, uHTS (AID 1578); format: functional; details: Homo sapiens
# [19] = molecular target: Nucleotide-binding oligomerization domain-containing protein 2 (Homo sapiens, UniProt Q9HC29); test: NOD2 signaling inhibitors, cell-based, luminescence, uHTS, HEK293 (AID 1566); format: functional
# [20] = system: HEK293; test: NOD2 signaling inhibitors in MDP-stimulated cells, cell-based, uHTS, luminescence (AID 2001); format: functional; details: Homo sapiens
# [21] = system: HEK293; test: cells; format: functional, cell-based; details: Homo sapiens
# [22] = system: HEK293; test: cells; format: functional, cell-based; details: Homo sapiens; remark: listed apart in the source
# [23] = molecular target: FAD-linked sulfhydryl oxidase ALR (Homo sapiens, UniProt P55789); test: inhibitors of human ALR sulfhydryl oxidase, dose response, biochemical, H2O2 detection, luminescence, cherry-pick (AID 493248)
# [24] = molecular target: Large T antigen (Simian virus 40, UniProt P03070); format: functional, Betapolyomavirus macacae;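 note: Confirmatory-stage PubChem screen for compounds that inhibit SV40 T antigen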
# [25] = system: INS1; test: beta cell apoptosis inhibitors, cytokine rescue, dose response, luminescence, retest (AID 449756); format: functional, cell-based; details: Rattus norvegicus;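 note: cell death triggered by IL-1 beta plus TNF-alpha plus IFN-gamma mixture; protective hits raise ATP signal compared with cytokine alone wells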
# Chain of Large T antigen (P03070 whole entry): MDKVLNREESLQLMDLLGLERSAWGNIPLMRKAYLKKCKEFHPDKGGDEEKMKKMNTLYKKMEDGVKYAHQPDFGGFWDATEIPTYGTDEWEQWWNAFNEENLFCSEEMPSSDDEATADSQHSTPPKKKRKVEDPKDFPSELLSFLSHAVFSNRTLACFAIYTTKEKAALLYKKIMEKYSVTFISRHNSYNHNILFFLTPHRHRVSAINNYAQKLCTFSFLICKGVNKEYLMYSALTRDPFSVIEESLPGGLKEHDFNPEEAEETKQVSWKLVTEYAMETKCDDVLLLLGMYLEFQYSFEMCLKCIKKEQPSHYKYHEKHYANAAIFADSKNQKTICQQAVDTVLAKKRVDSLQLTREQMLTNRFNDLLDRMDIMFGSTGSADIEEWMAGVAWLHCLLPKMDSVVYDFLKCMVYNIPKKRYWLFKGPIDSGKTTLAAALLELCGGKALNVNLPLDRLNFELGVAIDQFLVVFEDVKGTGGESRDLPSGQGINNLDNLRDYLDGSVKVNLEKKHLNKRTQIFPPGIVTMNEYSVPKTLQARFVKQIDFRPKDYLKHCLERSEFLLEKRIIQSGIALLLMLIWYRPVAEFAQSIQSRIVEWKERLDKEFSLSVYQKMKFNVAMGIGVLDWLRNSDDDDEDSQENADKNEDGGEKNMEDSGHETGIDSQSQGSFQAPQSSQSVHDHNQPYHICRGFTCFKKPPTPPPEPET
# Chain of FAD-linked sulfhydryl oxidase ALR (P55789 whole entry): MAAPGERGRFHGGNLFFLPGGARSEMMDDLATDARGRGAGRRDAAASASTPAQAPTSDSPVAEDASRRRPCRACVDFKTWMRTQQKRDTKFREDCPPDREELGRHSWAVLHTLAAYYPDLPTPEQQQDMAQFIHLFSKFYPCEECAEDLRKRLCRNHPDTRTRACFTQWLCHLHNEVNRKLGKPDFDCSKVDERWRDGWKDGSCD
# Chain of DNA dC->dU-editing enzyme APOBEC-3G (Q9HC16 whole entry): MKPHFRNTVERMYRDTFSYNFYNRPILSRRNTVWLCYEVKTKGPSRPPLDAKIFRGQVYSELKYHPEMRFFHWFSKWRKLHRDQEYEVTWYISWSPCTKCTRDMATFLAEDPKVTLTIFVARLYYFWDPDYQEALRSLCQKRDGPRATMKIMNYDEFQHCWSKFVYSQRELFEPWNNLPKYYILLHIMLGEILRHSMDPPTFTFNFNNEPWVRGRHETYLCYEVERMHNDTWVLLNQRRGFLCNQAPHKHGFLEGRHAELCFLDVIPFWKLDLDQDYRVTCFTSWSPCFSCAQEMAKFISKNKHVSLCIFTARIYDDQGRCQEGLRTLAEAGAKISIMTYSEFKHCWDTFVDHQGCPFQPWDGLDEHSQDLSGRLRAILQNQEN
# Chain of Nucleotide-binding oligomerization domain-containing protein 2 (Q9HC29 whole entry, the tested form may be a part): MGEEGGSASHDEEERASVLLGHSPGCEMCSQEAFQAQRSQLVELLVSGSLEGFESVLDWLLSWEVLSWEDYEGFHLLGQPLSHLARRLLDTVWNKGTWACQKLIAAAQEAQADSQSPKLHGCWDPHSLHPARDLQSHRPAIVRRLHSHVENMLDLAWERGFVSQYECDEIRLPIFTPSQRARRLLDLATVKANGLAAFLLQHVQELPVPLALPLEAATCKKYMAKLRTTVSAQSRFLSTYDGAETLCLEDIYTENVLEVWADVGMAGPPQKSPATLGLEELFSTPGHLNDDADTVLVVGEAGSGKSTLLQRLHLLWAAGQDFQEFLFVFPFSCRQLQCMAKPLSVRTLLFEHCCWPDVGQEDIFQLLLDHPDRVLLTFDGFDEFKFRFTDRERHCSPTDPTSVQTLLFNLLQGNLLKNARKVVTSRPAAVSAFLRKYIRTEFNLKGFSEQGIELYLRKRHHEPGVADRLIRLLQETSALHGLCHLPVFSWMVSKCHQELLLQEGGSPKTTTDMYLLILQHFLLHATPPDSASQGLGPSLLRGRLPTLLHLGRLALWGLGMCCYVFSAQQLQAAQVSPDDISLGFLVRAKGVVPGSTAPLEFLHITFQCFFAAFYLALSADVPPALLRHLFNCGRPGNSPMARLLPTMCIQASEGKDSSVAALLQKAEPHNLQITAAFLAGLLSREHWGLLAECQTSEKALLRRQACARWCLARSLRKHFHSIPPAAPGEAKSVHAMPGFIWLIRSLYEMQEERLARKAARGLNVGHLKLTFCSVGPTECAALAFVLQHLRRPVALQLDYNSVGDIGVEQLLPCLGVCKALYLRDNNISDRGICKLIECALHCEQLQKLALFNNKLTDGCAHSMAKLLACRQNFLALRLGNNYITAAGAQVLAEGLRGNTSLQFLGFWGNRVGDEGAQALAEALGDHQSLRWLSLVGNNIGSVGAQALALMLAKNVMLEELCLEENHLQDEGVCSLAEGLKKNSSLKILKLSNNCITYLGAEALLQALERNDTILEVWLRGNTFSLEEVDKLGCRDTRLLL
# Chain of Nonstructural protein 1 (Q194T2 whole entry): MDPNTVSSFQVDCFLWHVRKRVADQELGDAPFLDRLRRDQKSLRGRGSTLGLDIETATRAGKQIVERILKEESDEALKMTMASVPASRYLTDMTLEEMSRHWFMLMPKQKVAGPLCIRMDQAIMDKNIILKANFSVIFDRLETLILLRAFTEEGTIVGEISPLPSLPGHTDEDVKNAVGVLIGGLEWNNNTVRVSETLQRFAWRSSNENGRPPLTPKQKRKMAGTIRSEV
# Chain of Peroxisome proliferator-activated receptor gamma/Nuclear receptor coactivator 2 (P37231 whole entry): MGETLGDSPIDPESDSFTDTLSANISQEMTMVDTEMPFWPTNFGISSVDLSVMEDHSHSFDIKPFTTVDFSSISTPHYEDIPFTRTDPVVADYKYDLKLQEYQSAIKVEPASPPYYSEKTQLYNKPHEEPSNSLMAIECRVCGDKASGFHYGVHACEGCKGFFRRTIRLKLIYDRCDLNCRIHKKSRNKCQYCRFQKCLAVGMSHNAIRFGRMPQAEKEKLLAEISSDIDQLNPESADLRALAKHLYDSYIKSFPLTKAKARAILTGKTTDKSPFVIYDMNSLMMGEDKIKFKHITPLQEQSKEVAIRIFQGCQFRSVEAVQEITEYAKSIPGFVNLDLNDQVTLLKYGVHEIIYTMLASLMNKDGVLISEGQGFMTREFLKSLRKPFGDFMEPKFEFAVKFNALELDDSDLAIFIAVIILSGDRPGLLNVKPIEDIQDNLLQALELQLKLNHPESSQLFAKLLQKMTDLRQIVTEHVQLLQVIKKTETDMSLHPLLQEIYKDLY
# Chain of Peroxisome proliferator-activated receptor gamma/Nuclear receptor coactivator 2 (Q15596 whole entry, further chain): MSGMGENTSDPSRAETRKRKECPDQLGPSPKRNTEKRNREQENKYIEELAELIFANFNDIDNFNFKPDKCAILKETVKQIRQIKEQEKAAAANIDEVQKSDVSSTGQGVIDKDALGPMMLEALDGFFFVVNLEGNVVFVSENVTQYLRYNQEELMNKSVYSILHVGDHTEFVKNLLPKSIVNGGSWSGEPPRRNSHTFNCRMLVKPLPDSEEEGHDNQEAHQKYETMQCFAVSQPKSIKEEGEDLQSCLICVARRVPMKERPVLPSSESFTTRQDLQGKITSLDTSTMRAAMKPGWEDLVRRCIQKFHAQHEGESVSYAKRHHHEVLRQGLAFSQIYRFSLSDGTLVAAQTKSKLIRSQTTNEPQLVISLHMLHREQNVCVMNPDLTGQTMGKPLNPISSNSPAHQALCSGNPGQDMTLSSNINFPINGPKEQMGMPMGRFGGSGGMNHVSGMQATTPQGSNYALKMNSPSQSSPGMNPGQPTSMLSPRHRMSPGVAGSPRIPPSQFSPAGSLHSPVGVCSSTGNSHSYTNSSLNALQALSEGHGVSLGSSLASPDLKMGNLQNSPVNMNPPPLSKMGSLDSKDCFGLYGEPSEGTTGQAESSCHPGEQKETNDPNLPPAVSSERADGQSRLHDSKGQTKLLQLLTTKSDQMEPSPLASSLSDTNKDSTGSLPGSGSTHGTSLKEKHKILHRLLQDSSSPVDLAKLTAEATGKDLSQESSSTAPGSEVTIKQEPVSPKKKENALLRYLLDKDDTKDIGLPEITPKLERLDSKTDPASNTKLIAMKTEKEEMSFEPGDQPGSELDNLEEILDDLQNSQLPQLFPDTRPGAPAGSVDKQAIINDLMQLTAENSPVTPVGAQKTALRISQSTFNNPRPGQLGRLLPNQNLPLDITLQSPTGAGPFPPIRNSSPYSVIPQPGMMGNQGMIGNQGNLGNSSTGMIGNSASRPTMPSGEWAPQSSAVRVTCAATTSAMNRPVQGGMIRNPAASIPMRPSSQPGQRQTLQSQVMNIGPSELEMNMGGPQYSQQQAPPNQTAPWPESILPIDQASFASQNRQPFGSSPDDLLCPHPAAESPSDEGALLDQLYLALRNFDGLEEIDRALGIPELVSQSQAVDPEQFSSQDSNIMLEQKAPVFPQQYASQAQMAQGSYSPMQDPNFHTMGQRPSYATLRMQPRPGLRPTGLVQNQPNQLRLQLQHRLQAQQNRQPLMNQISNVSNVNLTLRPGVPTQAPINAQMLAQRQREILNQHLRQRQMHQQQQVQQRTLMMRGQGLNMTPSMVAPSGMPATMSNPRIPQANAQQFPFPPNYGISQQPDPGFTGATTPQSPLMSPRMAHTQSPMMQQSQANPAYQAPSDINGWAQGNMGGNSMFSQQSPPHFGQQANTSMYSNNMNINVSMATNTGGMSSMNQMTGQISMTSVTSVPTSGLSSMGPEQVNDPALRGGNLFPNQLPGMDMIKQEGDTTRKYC
# Chain of DNA dC->dU-editing enzyme APOBEC-3A (P31941 whole entry): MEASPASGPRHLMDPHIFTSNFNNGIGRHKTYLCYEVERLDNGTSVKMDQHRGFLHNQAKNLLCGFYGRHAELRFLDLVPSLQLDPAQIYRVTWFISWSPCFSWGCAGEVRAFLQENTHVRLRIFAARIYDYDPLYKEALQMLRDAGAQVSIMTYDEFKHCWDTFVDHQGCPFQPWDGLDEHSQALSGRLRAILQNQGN
smiles,measurement,setting,value
C/C(=N\NC(=O)c1c[nH]c2ccccc12)c1ccccn1,EC50,[1],3.97 µM (active)
same,CC50,[2],12.1 µM (active)
same,IC50,[3],4.29 µM (active)
same,CC50,[4],6.55 µM (active)
same,EC50,[5],1.73 µM (active)
same,IC50,[6],3.17 µM (active)
same,CC50,[7],2.01 µM (active)
Cc1nn(C)c(C)c1Sc1ccc(Br)cc1,EC50,[8],4.73 µM (active)
O=C1c2ccccc2-n2c1nc1ccccc1c2=O [TRYPTANTHRIN],AC50,[9],1.08 µM (active)
same,CC50,[2],> 20 µM (active)
same,IC50,[3],0.33 µM (active)
same,EC50,[10],643 nM (active)
same,CC50,[4],17.5 µM (active)
same,CC50,[7],> 20 µM (active)
C=CCn1c(NC(C)c2cc(Cl)ccc2O)nc2ccccc21 (stereo not given),EC50,[11],13.3 µM (not active)
same,EC50,[12],> 79.4 µM (not active)
same,EC50,[13],> 79.4 µM (inactive)
same,EC50,[14],> 50 µM (active)
C=C(C)Cn1c(-c2cccc([N+](=O)[O-])c2)n[nH]c1=S,IC50,[15],5.5 µM (active)
same,IC50,[16],> 100 µM (inactive)
C/C(=N\Nc1nc2ccccc2[nH]1)c1ccc(N2CCOCC2)cc1,CC50,[2],> 20 µM (active)
same,IC50,[3],20.3 µM (active)
c1ccn2cc(C34CC5CC(CC(C5)C3)C4)nc2c1,EC50,[8],6.68 µM (active)
O=C(Nc1cccc(Cl)c1)N1CCN2C(=O)c3ccccc3C12c1ccccc1 (stereo not given),AC50,[17],3.16 µM (inconclusive)
same,EC50,[8],3.76 µM (active)
COc1ccc([N+](=O)[O-])cc1NCc1ccco1,EC50,[8],2.99 µM (active)
CC(=O)c1ccc(-n2c(C)c(C(C)=O)c3cc(O)ccc32)cc1,EC50,[18],> 20 µM (inactive)
same,EC50,[19],> 20 µM (inactive)
same,IC50,[20],2.7 µM (active)
same,IC50,[21],> 20 µM (inactive)
same,IC50,[22],1.94 µM (active)
Cc1ccc2nc(-c3ccccn3)c(NC3CCCC3)n2c1,EC50,[1],> 60 µM (not active)
same,AC50,[23],7.26 µM (active)
same,CC50,[2],> 20 µM (active)
same,IC50,[24],11.6 µM (active)
same,IC50,[3],4.95 µM (active)
same,CC50,[4],14.3 µM (active)
same,EC50,[5],1.74 µM (active)
same,AC50,[25],8.58 µM (active)
same,CC50,[7],16.5 µM (active)
